Data: PMC12856972 (Clinical Pharmacology in Drug Development, 2025)

Legend:
[1] = Plasma PK, single ascending dose trial BNC210.001; format: in vivo, human; conditions: suspension, fasted
[2] = Urinary excretion of unchanged drug, trial BNC210.001; format: in vivo, human; conditions: suspension, fasted
[3] = Plasma PK, food effect SAD trial BNC210.002; format: in vivo, human; conditions: suspension
[4] = Plasma PK, multiple ascending dose trial BNC210.005; format: in vivo, human
[5] = Plasma PK, suspension vs 150 mg tablet cross-over trial BNC210.009; format: in vivo, human; conditions: 300 mg tablet
[6] = Plasma PK, SAD trial BNC210.010; format: in vivo, human; conditions: 150 mg‐strength tablet, fasted, up to 1200 mg
[7] = Plasma PK, 7-day trial BNC210.011; format: in vivo, human
[8] = target: α7 nAChR (Homo sapiens, UniProt P36544); assay: Nicotine shift assay, qEEG α2 band; format: in vivo; conditions: 1,000 mg BID; particularly with 2 mg nicotine
Chain of α7 nAChR (P36544 23-502): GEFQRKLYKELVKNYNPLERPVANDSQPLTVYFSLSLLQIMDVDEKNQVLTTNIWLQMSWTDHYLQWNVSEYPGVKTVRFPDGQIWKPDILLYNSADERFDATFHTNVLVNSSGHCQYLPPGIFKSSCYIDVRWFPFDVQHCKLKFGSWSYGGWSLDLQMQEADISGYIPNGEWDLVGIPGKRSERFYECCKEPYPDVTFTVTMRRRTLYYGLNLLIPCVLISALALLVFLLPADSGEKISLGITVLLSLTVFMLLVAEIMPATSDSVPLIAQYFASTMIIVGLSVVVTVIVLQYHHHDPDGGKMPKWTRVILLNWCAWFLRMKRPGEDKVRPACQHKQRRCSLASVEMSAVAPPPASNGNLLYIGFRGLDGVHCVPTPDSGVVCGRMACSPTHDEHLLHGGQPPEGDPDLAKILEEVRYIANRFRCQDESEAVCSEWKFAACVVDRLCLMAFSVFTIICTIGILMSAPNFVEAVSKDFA

[9] = test system: healthy volunteers; assay: PEPSY psychometric test battery; format: in vivo, human; conditions: up to 1000 mg BID for 8 days; Day 1 and Day 8
[10] = test system: healthy volunteers; assay: CCK‐4 induced panic model; format: in vivo, human; conditions: 2000 mg
[11] = test system: healthy volunteers; assay: Safety and tolerability, Phase 1 trials; format: in vivo, human
[12] = test system: healthy volunteers; conditions: in vivo
[13] = test system: mouse and rat behavioral models of anxiety and stress‐related disorders; conditions: cited from earlier work
[14] = test system: patients with GAD; conditions: cited from earlier work
[15] = test system: social anxiety disorder patients; conditions: as‐needed acute dosing, NCT05193409; cited from earlier work
[16] = test system: patients with PTSD; conditions: 12‐week; cited from earlier work
[17] = suspension taken with food, out‐patient, NCT02933606; cited from earlier work
[18] = test system: healthy volunteers; assay: ARCI 49 abuse liability checklist
[19] = test system: healthy volunteers; assay: Peak Saccadic Velocity
[20] = test system: healthy volunteers; assay: Quantitative EEG profiling
[21] = test system: healthy volunteers; assay: Karolinska Sleepiness Scale
[22] = test system: healthy volunteers; assay: Neuroendocrine biomarkers serum cortisol and ACTH; conditions: Phase 1 trials
[23] = test system: healthy volunteers; assay: Digit Symbol Substitution Test
[24] = test system: healthy volunteers; assay: Subjective feelings on VAS
[25] = Phase 1 trials in healthy volunteers, N = 173

SMILES: CCn1cc(C(=O)N2CCOCC2)c(=O)c2cc(NC3Cc4ccccc4C3)cnc21 [BNC210]
- Change in exposure with dose ([1]; beyond 600 mg): no appreciable further increase in exposure
- Dose proportionality of AUC and Cmax ([1]; dose levels up to 50 mg): increased approximately dose proportionately
- Drug excreted unchanged in the urine ([2]; single 5 mg): 13.6 % of the dose administered
- Drug excreted unchanged in the urine ([2]; single 2000 mg): 0.6 % of the dose administered
- Increase in AUC with food ([3]; 300 mg, fed vs fasted): 3.5 fold
- Increase in Cmax with food ([3]; 300 mg, fed vs fasted): more than doubling
- Increase in AUC at 2000 mg over 1200 mg ([3]; fed): 15%
- Dose proportionality of exposure ([3]; fed, 600 and 1200 mg): approximately dose‐proportional
- Dose proportionality of exposures ([4]; suspension BID, increasing dose levels): less than dose‐proportional
- Mean steady state AUC0–12 ([4]; suspension, 1000 mg BID (2000 mg/day)): 24900 ng·h/mL
- Day steady state achieved ([4]; suspension, 150 and 300 mg BID): 2 days
- Day steady state achieved ([4]; suspension, 600 and 1000 mg BID): 6 days
- Tmax ([5]; fasted): 2 h
- Tmax ([5]; fed): 4 h
- Dose proportionality of Cmax and AUC [6]: increased proportionally with dose
- Day from which steady state achieved ([7]; 225 mg‐strength tablet, 900 mg BID): 3 days
- Steady state AUC0‐12, tablet 900 mg BID vs suspension 1000 mg BID ([7]; in vivo): double
- Extent of inhibition of nicotine‐induced α2 band response [8]: partial
- Cognition, PEPSY test battery [9]: no overall consistent effect on cognition
- eVAS emotional stability vs placebo ([10]; 5 min post CCK‐4 injection, P = 0.104): trend
- PSS Sum Intensity score vs placebo ([10]; 10 min post CCK‐4 injection, 15 evaluable responders, P < 0.041): significant reduction
- PSS Total Symptom score vs placebo ([10]; 10 min post CCK‐4 injection, 15 evaluable responders, P < 0.048): significant reduction
- TEAE Fatigue [11, 25]: 7 (4.1) n (%)
- TEAE Headache [11, 25]: 35 (20.2) n (%)
- TEAE Nausea [11, 25]: 8 (4.6) n (%)
- TEAE Somnolence [11, 25]: 16 (9.3) n (%)
- Dose relationship of CNS TEAEs (headache, somnolence, nausea, fatigue) ([11]; SAD and MAD trials): did not suggest a dose relationship
- Serious adverse events ([11]; eight Phase 1 trials): no serious adverse events were reported
- Maximum tolerated dose ([11]; up to 2000 mg suspension and 1200 mg tablet): No maximum tolerated dose was found
- Total reaction time vs placebo [12]: no increases in total reaction time
- Activity in behavioral models of anxiety and stress‐related disorders ([13]; broad therapeutic dosage range): effective
- Side effects in rodent models ([13]; preclinical pharmacology and toxicology studies): did not elicit sedation, memory or motor impairment, or physical dependence
- Threat avoidance behavior and self‐reported anxiety [14]: significantly reduced
- Anxiety levels vs placebo [15]: improvements in anxiety levels
- PTSD total symptom severity scores, depression, insomnia vs placebo [16]: effective at significantly reducing
- Plasma levels, population PK analysis [17]: appreciably lower than expected
- ARCI 49 checklist ([18]; trials BNC210.003, BNC210.004, BNC210.005): No clinically significant feelings associated with any classes of drugs of abuse
- Peak saccadic velocity vs placebo ([19]; 300 and 2000 mg): did not show any significant effect
- qEEG alpha power ([20]; 300 mg dose only): small decrease in alpha power
- qEEG delta activity vs placebo ([20]; 300 and 2000 mg): increased delta EEG activity in the resting condition, but not the Vigilance‐Controlled condition
- qEEG delta power ([20]; 300 and 2000 mg): some increase in delta power in the Resting condition only
- Overlap of EEG profile with lorazepam ([20]; in vivo): little overlap in EEG profiles
- qEEG beta‐3 ([20]; in vivo): only a slight increase
- Karolinska Sleepiness Scale vs placebo ([21]; 300 and 2000 mg): no increase in sleepiness
- Effect on serum cortisol or ACTH [22]: No consistent effects
- Digit Symbol Substitution Test vs placebo ([23]; 300 mg, 6‐h P < 0.05): no effects with 300 mg, except at the 6‐h time point only
- Digit Symbol Substitution Test vs placebo ([23]; 2000 mg): no effects at any time point
- Subjective feelings on VAS (16‐item Bond and Lader or eVAS) ([24]; trials BNC210.001, .002, .003, .005, basal state): No effects on subjective feelings

SMILES: O=C1Nc2ccc(Cl)cc2C(c2ccccc2Cl)=NC1O (stereo not shown) [lorazepam, reference compound]
- Total reaction time vs placebo [12]: significantly higher
- ARCI 49 benzedrine subscale vs placebo ([18]; 2 mg, P = 0.056): tended to score lower
- Peak saccadic velocity (mean maximum) vs placebo ([19]; 2 mg, 6, 9, and 12 h (P < 0.001)): significantly slower
- qEEG delta activity vs placebo ([20]; 2 mg): increased delta activity during both the Resting and Vigilance‐Controlled conditions
- Karolinska Sleepiness Scale vs placebo ([21]; 2 mg, 6‐h (P < 0.001), 9‐h (P < 0.05)): significant increase in the feeling of sleepiness
- Digit Symbol Substitution Test vs placebo ([23]; 2 mg, 6‐h (P < 0.001), 9‐hour (P < 0.05)): significant effect
- eVAS mood vs placebo ([24]; 2 mg, trial BNC210.003, 6 h time point, P < 0.05): mood‐lowering effect
